pIC50: −log10 of the molar value.
What was measured:
SW620 Yap KO cells = test: Viability assay in SW620 Yap KO (Yap independent) cells, CyQuant; format: cell-based
Procedure: (§1) Viability Assay in NCI-H226 (Yap-Dependent) and SW620 Yap KO (Yap Independent) Cells
(§2) The ability of YAP-TEAD inhibitors to inhibit tumor cell growth was evaluated using two different cell lines: NCI-H226, which is a YAP dependent cell line, and SW620 cells, where YAP and TAZ were knocked out using CRISPR to generate a YAP independent cell line.
(§3) For the assay, cells were treated in duplicates with the test compounds in a 10-point dose, 1:3 dilution steps, with the top concentration starting at 30 μM (final concentration in assay). After a 96 hour incubation at 37° C., 95% rH, and 5% CO2, a cell-permeant DNA-binding dye that stains only healthy cells (CyQUANT®, Promega) was added to the cells, allowing the quantification of cell viability.
(§4) Cell Media: The NCI-H226 cells were cultured in the following media: RPMI 1640, +10% FBS, +1× GlutaMAX, +10 mM HEPES, +0.5% Pen/Strep. The SW620-KO cells were cultured in the following media: DMEM/F-12, +10% FBS, +1× GlutaMAX, +10 mM HEPES, +0.5% Pen/Strep.
(§5) Reagents: The reagents used are listed below:
(§6) Cell culture: The cells were examined using an inverted microscope to check for health, cell density, etc. To dissociate adherent cells, the monolayer of cells was washed once with pre-warmed PBS. After removing the PBS, 3 ml pre-warmed Accutase was added to a F75 flask, dispersed evenly and the flask was allowed to sit in incubator for ˜4-5 minutes.
(§7) When a single cell suspension was obtained, 7 ml of prewarmed growth media was added and resuspended with the cells. The cell suspension was transferred to a sterile 15 ml conical centrifuge tube, and spun for 5 min at 300×g, RT. The supernatant was discarded and the pellet was resuspended in 10 ml of pre-warmed growth media.
(§8) The total cell count was determined, and 20 μl of the desired cell number was added to each well of a 384 well plate using a Multidrop Combi. The plates were then incubated for 24 hours at 37° C., 95% rH, and 5% CO2.
(§9) Compound treatment: 24 hours after seeding, the cells were treated with compounds.
(§10) A 1:333 dilution of compounds, diluted in DMSO, was made to get a final concentration of 0.3% DMSO per well. To transfer the compounds to the assay plate, […] was shot from Labcyte low dead volume plates to the cell plates containing 20 μl media/well with the ECHO 555 liquid handling system.
(§11) After treatment, the cells were fed with 20 μl fresh pre-warmed assay media using a Multidrop combi.
(§12) The assay plates were then incubated for 96 h at 37° C., 95% rH, and 5% CO2.
(§13) 96 h after treatment 30 μl of CyQuant® reagent was added to the assay plates using a Multidrop combi in the dark. The plates were then incubated for 1 hour at 37° C., 95% rH and 5% CO2. Thereafter, the assay plates were removed from the incubator and allowed to equilibrate to RT for 30 min in the dark without lid. Finally, they were measured using an EnVision microplate reader with a FITC bottom read program.

YAP-TEAD interaction = test: SK-HEP-1 reporter assay (8xTEAD responsive elements driving NanoLuc luciferase); format: cell-based
Summary of the method: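 SK-HEP-1 cells stably carrying 8×TEAD-driven NanoLuc treated in duplicate, 10-point dose from 30 μM final, 0.3% DMSO, 24 h at 37° C. Luminescence after NanoGlo lysis/substrate addition; IC50 calculated from dose response.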

NCI-H226 cells = test: Viability assay in NCI-H226 (Yap-dependent) cells, CyQuant; format: cell-based, human; settings: class symbols
Procedure: as §1, §2, §3, §4, §5, §6, §7, §8, §9, §10, §11, §12, §13

[1] = 96 h, n.d. = value not detectable below threshold given in parentheses, ND = not determinable within the entire range
[2] = SK-HEP-1 reporter assay, class symbols
[3] = Homo sapiens, SW-620, 96 h, n.d. = value not detectable below threshold given in parentheses, ND = not determinable within the entire range
[4] = Homo sapiens, SK-HEP1, SK-HEP-1 reporter assay, class symbols
[5] = Homo sapiens, SW-620, 96 h, class symbols
[6] = Homo sapiens, SW-620, 96 h, n.d. = value not detectable below threshold given in parentheses
[7] = Homo sapiens, SK-HEP1, SK-HEP-1 reporter assay, n.d. = value not detectable below threshold given in parentheses

| SMILES | pIC50 (YAP-TEAD interaction; [4]) | pIC50 (NCI-H226 cells; Homo sapiens, NCI-H226, 96 h) | pIC50 (SW620 Yap KO cells; [6]) | pIC50 (YAP-TEAD interaction; [7]) | further results |
| --- | --- | --- | --- | --- | --- |
| CC(NC(=O)c1ccc2c(c1)c1cn(C)nc1n2-c1ccc(C(F)(F)F)cc1)c1ccn[nH]1 (single isomer, unassigned) [Example C76] |  |  |  |  | pIC50 (SW620 Yap KO cells; [1]): < 5.49; pIC50 (YAP-TEAD interaction; [2]): 5.00 to 7.00; pIC50 (NCI-H226 cells; 96 h): 7.00 to 9.00 |
| COCC[C@@H](CO)NC(=O)c1ccc2c(c1)c1c(C)snc1n2-c1ccc(C(F)(F)F)cc1 (single isomer, unassigned) [Example C89] | 7.00 to 8.00 | 7.00 to 9.00 |  |  | pIC50 (SW620 Yap KO cells; [3]): < 4.52 |
| Cc1snc2c1c1cc(C(=O)N=S(C)(=O)CCO)ccc1n2-c1ccc(C(F)(F)F)cc1 (single isomer, unassigned) [Example C101] | 7.00 to 8.00 | 7.00 to 9.00 |  |  | pIC50 (SW620 Yap KO cells; [3]): < 5.49 |
| Cc1snc2c1c1cc(C(=O)N=S(C)(=O)CCO)ccc1n2-c1ccc(C(F)(F)F)cc1 (single isomer, unassigned) [Example C102] | 7.00 to 8.00 | 7.00 to 9.00 |  |  | pIC50 (SW620 Yap KO cells; [3]): < 4.52 |
| Cc1snc2c1c1cc(C(=O)N=S(C)(=O)CCCO)ccc1n2-c1ccc(C(F)(F)F)cc1 (single isomer, unassigned) [Example C104] |  | 7.00 to 9.00 |  |  | pIC50 (SW620 Yap KO cells; [3]): < 5.49; pIC50 (YAP-TEAD interaction; [2]): 7.00 to 8.00 |
| Cn1cc2c3cc(C(=O)NC(CO)c4ccccn4)ccc3n(-c3ccc(C(F)(F)F)nc3)c2n1 (single isomer, unassigned) [Example C123] | 5.00 to 7.00 |  |  |  | pIC50 (SW620 Yap KO cells; [3]): < 4.52; pIC50 (NCI-H226 cells; 96 h): 6.00 to 7.00 |
| Cn1cc2c3cc(C(=O)NC(CO)c4ccccn4)ccc3n(-c3ccc(C(F)(F)F)nc3)c2n1 (single isomer, unassigned) [Example C124] |  |  |  |  | pIC50 (SW620 Yap KO cells; [1]): < 4.52; pIC50 (YAP-TEAD interaction; Homo sapiens, SK-HEP1, SK-HEP-1 reporter assay, n.d. = value not detectable below threshold given in parentheses, ND = not determinable within the entire range): < 4.52; pIC50 (NCI-H226 cells; 96 h): 5.00 to 6.00 |
| Cn1nc2c3cc(C(=O)N=[S@@](=O)(CCO)Cc4ccccn4)ccc3n(-c3ccc(C(F)(F)F)cc3)c2n1 (single isomer, unassigned) [Example C157] | 7.00 to 8.00 | 6.00 to 7.00 |  |  | pIC50 (SW620 Yap KO cells; [5]): 5.00 to 6.00 |
| Cn1nc2c3cc(C(=O)N=[S@](=O)(CCO)Cc4ccccn4)ccc3n(-c3ccc(C(F)(F)F)cc3)c2n1 (single isomer, unassigned) [Example C161] | 7.00 to 8.00 | 7.00 to 9.00 |  |  | pIC50 (SW620 Yap KO cells; [3]): < 5.52 |
| Cn1cc2c3cc(C(=O)N[C@@H](CCO)c4cncs4)ccc3n(-c3ccc(C(F)(F)F)cc3)c2n1 (single isomer, unassigned) [Example C162] | 7.00 to 8.00 | 7.00 to 9.00 |  |  | pIC50 (SW620 Yap KO cells; [3]): < 4.52 |
| Cn1nc2c3cc(C(=O)N=[S@](C)(=O)CCCO)ccc3n(-c3ccc(C(F)(F)F)cc3)c2n1 (single isomer, unassigned) [Example C172] | 7.00 to 8.00 | 7.00 to 9.00 | < 4.52 |  |  |
| Cn1nc2c3cc(C(=O)N=[S@@](C)(=O)CCCO)ccc3n(-c3ccc(C(F)(F)F)cc3)c2n1 (single isomer, unassigned) [Example C173] | 7.00 to 8.00 | 7.00 to 9.00 | < 4.52 |  |  |
| Cn1cc2c3cc(C(=O)N=[S@](=O)(CCO)Cc4ccccn4)ccc3n(-c3ccc(C(F)(F)F)cc3)c2n1 (single isomer, unassigned) [Example C175] |  | 7.00 to 9.00 | < 5.52 | < 5.02 |  |
| Cn1cc2c3cc(C(=O)N=[S@@](=O)(CCO)Cc4ccccn4)ccc3n(-c3ccc(C(F)(F)F)cc3)c2n1 (single isomer, unassigned) [Example C177] |  | 6.00 to 7.00 | < 5.52 | < 5.19 |  |
| Cn1nc2c3cc(C(=O)N[C@](C)(CO)c4ccccn4)ccc3n(-c3ccc(C(F)(F)F)cc3)c2n1 (single isomer, unassigned) [Example C187] | 7.00 to 8.00 | 7.00 to 9.00 |  |  | pIC50 (SW620 Yap KO cells; [5]): 5.00 to 6.00 |
| Cn1nc2c3cc(C(=O)N[C@@](C)(CO)c4ccccn4)ccc3n(-c3ccc(C(F)(F)F)cc3)c2n1 (single isomer, unassigned) [Example C189] | 7.00 to 8.00 | 7.00 to 9.00 | < 4.52 |  |  |
| Cn1nc2c3cc(C(=O)N=[S@@](C)(=O)CCO)ccc3n(-c3ccc(C(F)(F)F)cc3)c2n1 (single isomer, unassigned) [Example C191] | 7.00 to 8.00 | 7.00 to 9.00 | < 4.52 |  |  |
| Cn1nc2c3cc(C(=O)N=S(C)(=O)CCO)ccc3n(-c3ccc(C(F)(F)F)cc3)c2n1 (single isomer, unassigned) [Example C192] | 7.00 to 8.00 | 7.00 to 9.00 | < 4.52 |  |  |
| Cn1cc2c3cc(C(=O)N=[S@@](=O)(CCCO)Cc4cccnc4)ccc3n(-c3ccc(C(F)(F)F)cc3)c2n1 (single isomer, unassigned) [Example C199] |  | 6.00 to 7.00 | < 5.52 | < 7.02 |  |
| Cn1nc2c3cc(C(=O)N=[S@@](=O)(CCCO)Cc4cccnc4)ccc3n(-c3ccc(C(F)(F)F)cc3)c2n1 (single isomer, unassigned) [Example C200] |  | 6.00 to 7.00 | < 5.52 | < 5.02 |  |
| Cn1cc2c3cc(C(=O)N=[S@](=O)(CCCO)Cc4cccnc4)ccc3n(-c3ccc(C(F)(F)F)cc3)c2n1 (single isomer, unassigned) [Example C201] |  | 6.00 to 7.00 |  | < 6.52 | pIC50 (SW620 Yap KO cells; [5]): 5.00 to 6.00 |
| Cn1nc2c3cc(C(=O)N=[S@](=O)(CCCO)Cc4cccnc4)ccc3n(-c3ccc(C(F)(F)F)cc3)c2n1 (single isomer, unassigned) [Example C202] |  | 6.00 to 7.00 | < 5.52 | < 6.52 |  |
| Cn1cc2c3cc(C(=O)N=[S@@](=O)(CCCO)Cc4ccccn4)ccc3n(-c3ccc(C(F)(F)F)cc3)c2n1 (single isomer, unassigned) [Example C210] |  | 6.00 to 7.00 | < 5.52 | < 7.02 |  |
| Cn1cc2c3cc(C(=O)N=[S@](=O)(CCCO)Cc4ccccn4)ccc3n(-c3ccc(C(F)(F)F)cc3)c2n1 (single isomer, unassigned) [Example C213] |  |  | < 5.52 |  | pIC50 (YAP-TEAD interaction; SK-HEP-1 reporter assay, n.d. = value not detectable below threshold given in parentheses): < 6.52; pIC50 (NCI-H226 cells; 96 h): 7.00 to 9.00 |
| C[C@H](NC(=O)c1ccc2c(c1)c1cn(C)nc1n2-c1ccc(C(F)(F)F)cc1)c1cccc(N)n1 (single isomer, unassigned) [Example C214] | 7.00 to 8.00 | 7.00 to 9.00 | < 5.52 |  |  |
| Cn1cc2c3cc(C(=O)N=[S@@](=O)(CCCO)Cc4ccncc4)ccc3n(-c3ccc(C(F)(F)F)cc3)c2n1 (single isomer, unassigned) [Example C231] |  | 6.00 to 7.00 | < 5.52 | < 6.52 |  |

From patent US20240270748A1 (Merck Patent GmbH, priority 2021, published 2024)
